Read-outs that look alike come from different tables or passages of the source.
Legend:
Assay in all cases: NCI anticancer screen, SRB assay, 48 h
Format in all cases: cell-based, human
[1] = tested on: SK-MEL-5 (melanoma); conditions: Homo sapiens
Summary of the method: (§1)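 Compounds were tested across fifty three human cancer cell lines from nine tumour types. Each line got a dose-response curve of at least five concentrations at 10-fold dilutions, with continuous drug exposure and sulforhodamine B protein staining to estimate viability or growth.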

[2] = tested on: TK-10 (renal); conditions: Homo sapiens
Summary of the method: as §1

[3] = tested on: A549/ATCC (non-small cell lung); conditions: Homo sapiens
Summary of the method: as §1

[4] = tested on: HS 578T (breast); conditions: Homo sapiens
Summary of the method: as §1

[5] = tested on: NCI-H23 (non-small cell lung); conditions: Homo sapiens
Summary of the method: as §1

[6] = tested on: NCI-H322M (non-small cell lung); conditions: Homo sapiens
Summary of the method: as §1

[7] = tested on: EKVX (non-small cell lung); conditions: Homo sapiens
Summary of the method: as §1

[8] = tested on: A498 (renal); conditions: Homo sapiens
Summary of the method: as §1

[9] = tested on: NCI-H226 (non-small cell lung); conditions: Homo sapiens
Summary of the method: as §1

[10] = tested on: OVCAR-5 (ovarian); conditions: Homo sapiens
Summary of the method: as §1

[11] = tested on: PC-3 (prostate); conditions: Homo sapiens
Summary of the method: as §1

[12] = tested on: MDA-MB-435 (melanoma); conditions: Homo sapiens
Summary of the method: as §1

[13] = tested on: CAKI-1 (renal); conditions: Homo sapiens
Summary of the method: as §1

[14] = tested on: SNB-19 (CNS); conditions: Homo sapiens
Summary of the method: as §1

[15] = tested on: MALME-3M (melanoma); conditions: Homo sapiens
Summary of the method: as §1

[16] = tested on: NCI/ADR-RES (ovarian); conditions: Homo sapiens, NCI/ADR-RES
Summary of the method: as §1

[17] = tested on: LOX IMVI (melanoma); conditions: Homo sapiens
Summary of the method: as §1

[18] = tested on: HOP-92 (non-small cell lung); conditions: Homo sapiens
Summary of the method: as §1

[19] = tested on: HCT-15 (colon); conditions: Homo sapiens
Summary of the method: as §1

[20] = tested on: ACHN (renal); conditions: Homo sapiens
Summary of the method: as §1

[21] = tested on: COLO 205 (colon); conditions: Homo sapiens, COLO 205
Summary of the method: as §1

[22] = tested on: HOP-62 (non-small cell lung); conditions: Homo sapiens
Summary of the method: as §1

[23] = tested on: K-562 (leukemia cell line); conditions: Homo sapiens
Summary of the method: as §1

[24] = tested on: HT29 (colon); conditions: Homo sapiens
Summary of the method: as §1

[25] = tested on: OVCAR-4 (ovarian); conditions: Homo sapiens
Summary of the method: as §1

[26] = tested on: OVCAR-8 (ovarian); conditions: Homo sapiens
Summary of the method: as §1

[27] = tested on: HCC-2998 (colon); conditions: Homo sapiens
Summary of the method: as §1

[28] = tested on: UACC-257 (melanoma); conditions: Homo sapiens
Summary of the method: as §1

[29] = tested on: SNB-75 (CNS); conditions: Homo sapiens
Summary of the method: as §1

[30] = tested on: KM12 (colon); conditions: Homo sapiens
Summary of the method: as §1

[31] = tested on: SN12C (renal); conditions: Homo sapiens, SN12C
Summary of the method: as §1

[32] = tested on: U251 (CNS); conditions: Homo sapiens
Summary of the method: as §1

[33] = tested on: MDA-MB-231/ATCC (breast); conditions: Homo sapiens
Summary of the method: as §1

[34] = tested on: 786-0 (renal); conditions: Homo sapiens
Summary of the method: as §1

[35] = tested on: RPMI-8226 (leukemia cell line); conditions: Homo sapiens
Summary of the method: as §1

[36] = tested on: MCF7 (breast); conditions: Homo sapiens
Summary of the method: as §1

[37] = 48 h exposure, SRB, read-out: GI50
[38] = read-out: pGI50 (-log of molar concentration causing 50% inhibition of net cell growth) (converted)
[39] = PC-3, read-out: pGI50 (-log of molar concentration causing 50% inhibition of net cell growth) (converted)
[40] = one prostate cancer cell line (PC-3), exposure at least 48 hrs, read-out: GI50
[41] = Malme-3M, read-out: pGI50 (-log of molar concentration causing 50% inhibition of net cell growth) (converted)
[42] = MALME-3M, 48 h exposure, SRB, read-out: GI50
[43] = NCl/ADR-RES, 48 h exposure, SRB, read-out: GI50
[44] = COLO205, read-out: pGI50 (-log of molar concentration causing 50% inhibition of net cell growth) (converted)
[45] = K562, 48 h exposure, SRB, read-out: GI50
[46] = K562, read-out: pGI50 (-log of molar concentration causing 50% inhibition of net cell growth) (converted)
[47] = HT-29, 48 h exposure, SRB, read-out: GI50
[48] = HT-29, read-out: pGI50 (-log of molar concentration causing 50% inhibition of net cell growth) (converted)
[49] = SN 12C, read-out: pGI50 (-log of molar concentration causing 50% inhibition of net cell growth) (converted)
[50] = U-251, 48 h exposure, SRB, read-out: GI50
[51] = U-251, read-out: pGI50 (-log of molar concentration causing 50% inhibition of net cell growth) (converted)

For `COc1cc(/C=C/C(=O)c2cccc(-n3cc(-c4ccccc4)[nH]c3=O)c2)ccc1O` [3a, 1-3-[(E)-3-(4-hydroxy-3-methoxyphenyl)-2-propenoyl]phenyl-4-phenyl-2,3-dihydro-1H-2-imidazolone], the GI50 [1, 37] was 1.59 µM, the GI50 [1, 38] was 1.58 µM and the GI50 [2, 37] was 5.29 µM. The GI50 [2, 38] was 5.25 µM, the GI50 [3, 37] was 3.85 µM and the GI50 [3, 38] was 3.89 µM. For the same compound, the GI50 [4, 37] was 4.16 µM, the GI50 [4, 38] was 4.17 µM and the GI50 [5, 37] was 2.02 µM. The GI50 [5, 38] was 2.04 µM, the GI50 [6, 37] was 3.39 µM and the GI50 [6, 38] was 3.39 µM. It also gave a GI50 [7, 37] of 3.9 µM, a GI50 [7, 38] of 3.89 µM and a GI50 [8, 37] of 1.68 µM. For the same compound, the GI50 [8, 38] was 1.7 µM, the GI50 [9, 37] was 2.6 µM and the GI50 [9, 38] was 2.57 µM. The GI50 [10, 37] was 2.04 µM, the GI50 [10, 38] was 2.04 µM and the GI50 [11, 39] was 2.51 µM. The GI50 [11, 40] was 2.52 µM, the GI50 [12, 37] was 2.14 µM and the GI50 [12, 38] was 2.14 µM. For the same compound, the GI50 [13, 37] was 2.19 µM, the GI50 [13, 38] was 2.19 µM and the GI50 [14, 37] was 2.96 µM. The GI50 [14, 38] was 2.95 µM, the GI50 [15, 41] was 2.69 µM and the GI50 [15, 42] was 2.67 µM. It also gave a GI50 [16, 43] of 2.92 µM, a GI50 [16, 38] of 2.95 µM and a GI50 [17, 37] of 1.88 µM. The GI50 [17, 38] was 1.86 µM, the GI50 [18, 37] was 2.27 µM and the GI50 [18, 38] was 2.29 µM. The GI50 [19, 37] was 2.73 µM, the GI50 [19, 38] was 2.75 µM and the GI50 [20, 37] was 2.5 µM. For the same compound, the GI50 [20, 38] was 2.51 µM, the GI50 [21, 44] was 2.19 µM and the GI50 [21, 37] was 2.21 µM. For the same compound, the GI50 [22, 37] was 1.48 µM, the GI50 [22, 38] was 1.48 µM and the GI50 [23, 45] was 2.04 µM. It also gave a GI50 [23, 46] of 2.04 µM, a GI50 [24, 47] of 3.77 µM and a GI50 [24, 48] of 3.8 µM. The GI50 [25, 37] was 5.19 µM, the GI50 [25, 38] was 5.25 µM and the GI50 [26, 37] was 4.11 µM. For the same compound, the GI50 [26, 38] was 4.07 µM, the GI50 [27, 37] was 1.51 µM and the GI50 [27, 38] was 1.51 µM. The GI50 [28, 37] was 6.81 µM, the GI50 [28, 38] was 6.76 µM and the GI50 [29, 37] was 3.9 µM. For the same compound, the GI50 [29, 38] was 3.89 µM, the GI50 [30, 37] was 1.61 µM and the GI50 [30, 38] was 1.62 µM. It also gave a GI50 [31, 49] of 3.31 µM, a GI50 [31, 37] of 3.31 µM and a GI50 [32, 50] of 2.11 µM. It also gave a GI50 [32, 51] of 2.09 µM, a GI50 [33, 37] of 3.36 µM and a GI50 [33, 38] of 3.39 µM. For the same compound, the GI50 [34, 37] was 1.35 µM, the GI50 [34, 38] was 1.35 µM and the GI50 [35, 37] was 1.67 µM. It also gave a GI50 [35, 38] of 1.66 µM, a GI50 [36, 37] of 1.55 µM and a GI50 [36, 38] of 1.55 µM.
Compound `COc1ccc(-c2cn(-c3cccc(C(=O)/C=C/c4ccc(O)c(OC)c4)c3)c(=O)[nH]2)cc1` [3b, 1-3-[(E)-3-(4-hydroxy-3-methoxyphenyl)-2-propenoyl]phenyl-4-(4-methoxyphenyl)-2,3-dihydro-1H-2-imidazolone] has a GI50 [1, 37] of 2.63 µM, a GI50 [1, 38] of 2.63 µM and a GI50 [2, 37] of 6.08 µM. The GI50 [2, 38] was 6.03 µM, the GI50 [3, 37] was 4.14 µM and the GI50 [3, 38] was 4.17 µM. For the same compound, the GI50 [4, 37] was 4.25 µM, the GI50 [4, 38] was 4.27 µM and the GI50 [5, 37] was 2.85 µM. For the same compound, the GI50 [5, 38] was 2.82 µM, the GI50 [6, 37] was 8.2 µM and the GI50 [6, 38] was 8.13 µM. For the same compound, the GI50 [7, 37] was 13.4 µM, the GI50 [7, 38] was 13.5 µM and the GI50 [8, 37] was 3.72 µM. For the same compound, the GI50 [8, 38] was 3.72 µM, the GI50 [9, 37] was 4.1 µM and the GI50 [9, 38] was 4.07 µM. It also gave a GI50 [10, 37] of 3.38 µM, a GI50 [10, 38] of 3.39 µM and a GI50 [11, 39] of 3.02 µM. The GI50 [11, 40] was 3.05 µM, the GI50 [12, 37] was 3.35 µM and the GI50 [12, 38] was 3.39 µM. The GI50 [13, 37] was 4.99 µM, the GI50 [13, 38] was 5.01 µM and the GI50 [14, 37] was 5.84 µM. For the same compound, the GI50 [14, 38] was 5.89 µM, the GI50 [15, 41] was 4.47 µM and the GI50 [15, 42] was 4.42 µM. For the same compound, the GI50 [16, 43] was 2.56 µM, the GI50 [16, 38] was 2.57 µM and the GI50 [17, 37] was 2.44 µM. For the same compound, the GI50 [17, 38] was 2.45 µM, the GI50 [18, 37] was 2.96 µM and the GI50 [18, 38] was 2.95 µM. For the same compound, the GI50 [19, 37] was 3.15 µM, the GI50 [19, 38] was 3.16 µM and the GI50 [20, 37] was 3.4 µM. For the same compound, the GI50 [20, 38] was 3.39 µM, the GI50 [21, 44] was 6.61 µM and the GI50 [21, 37] was 6.61 µM. It also gave a GI50 [22, 37] of 5.15 µM, a GI50 [22, 38] of 5.13 µM and a GI50 [23, 45] of 2.35 µM. For the same compound, the GI50 [23, 46] was 2.34 µM, the GI50 [24, 47] was 3.84 µM and the GI50 [24, 48] was 3.8 µM. The GI50 [25, 37] was 6.08 µM, the GI50 [25, 38] was 6.03 µM and the GI50 [26, 37] was 4.97 µM. For the same compound, the GI50 [26, 38] was 5.01 µM, the GI50 [27, 37] was 2.32 µM and the GI50 [27, 38] was 2.34 µM. For the same compound, the GI50 [28, 37] was 13.3 µM, the GI50 [28, 38] was 13.2 µM and the GI50 [29, 37] was 4.73 µM. The GI50 [29, 38] was 4.68 µM, the GI50 [30, 37] was 1.77 µM and the GI50 [30, 38] was 1.78 µM. The GI50 [31, 49] was 4.07 µM, the GI50 [31, 37] was 4.11 µM and the GI50 [32, 50] was 3.45 µM. For the same compound, the GI50 [32, 51] was 3.47 µM, the GI50 [33, 37] was 5.25 µM and the GI50 [33, 38] was 5.25 µM. For the same compound, the GI50 [34, 37] was 4.53 µM, the GI50 [34, 38] was 4.57 µM and the GI50 [35, 37] was 1.35 µM. The GI50 [35, 38] was 1.35 µM, the GI50 [36, 37] was 3.18 µM and the GI50 [36, 38] was 3.16 µM.
